Results published in patent publication US20130172294A1, “Treatment with VB-201” (Vascular Biogenics Ltd., priority 2010, published 2013).

Columns and labels:
[1] = Repeated daily dose pharmacokinetics of VB-201 in plasma, 14 days (Example 2); format: in vivo, human; conditions: for T1/2 (rec. ph.): recovery phase after Day 14
Procedure: Determination of VB-201 concentrations in plasma was performed using an HPLC-MS/MS (high performance liquid chromatography with tandem mass spectrometric detection) assay. Calibration was for a range of from 5 to 500 ng/ml for low doses and from 50 to 5000 ng/ml for high doses. Pharmacokinetic parameters were estimated by using a non-compartmental method, except for the AUC (area under curve), which was determined using a (log-) trapezoidal rule as the area above the previous trough level. […] The subjects were all healthy volunteers. […] 10 subjects received a placebo. The VB-201 was formulated in gelatin capsules enterocoated with Opadry AMB and Acryleze White. The 20 mg dose was originally in the form of 20 mg capsules. […] Pharmacokinetic blood samples for VB-201 determination were collected on Day 0 and Day 14, prior to dosing and 2, 4, 6, 8, 10, 12, 16 and 24 hours after dosing. […] Pharmacokinetic samples were also collected on Day 12 and Day 13, before dosing. Concentration-time curves were constructed for a time period of 24 hours on each of days 1 and 14. In addition, urine samples from the subjects receiving 30 mg VB-201 were assayed for VB-201 by high performance liquid chromatography-tandem mass spectrometry. […] The limit of detection was 1 ng/ml.

[2] = Safety and tolerability of repeated doses 5-30 mg (Example 2); format: in vivo, human
Description: Safety and tolerability of VB-201 was judged by evaluating the incidence of abnormal findings in the following measurements: vital signs: systolic and diastolic blood pressure, heart rate, respiratory rate, body temperature; physical examination; 12-lead electrocardiogram; laboratory tests of blood samples for: complete blood count, prothrombin time/partial thromboplastin time, LDL- and HDL-cholesterol, total cholesterol, triglycerides, glucose, blood urea nitrogen, sodium, potassium, creatinine, calcium, phosphorus, creatinine phosphokinase, lactate dehydrogenase, aspartate transaminase, alanine transaminase, γ-glutamyl transferase, alkaline phosphatase, protein, albumin, total bilirubin, total IgM and IgG antibodies, interleukin-12/23 p40, tumor necrosis factor-α, and interleukin-6, as well as routine urinalysis; and all adverse events, whether or not considered serious, and whether or not considered related to the investigational agent, according to the criteria for Good Clinical Practice. Treatment-emergent adverse events were defined as any adverse event that started on or after administration of the first dose of VB-201, and no more than 30 days after administration of the last dose, or are ongoing at the time of the first dose and worsened in severity or frequency during treatment. […] The subjects were all healthy volunteers. […] 10 subjects received a placebo. […]

[3] = Pharmacokinetics of VB-201 in human subjects, summary over the studies; format: in vivo
Procedure: Determination of VB-201 concentrations in plasma was performed using an HPLC-MS/MS (high performance liquid chromatography with tandem mass spectrometric detection) assay. Calibration was for a range of from 5 to 500 ng/ml for low doses and from 50 to 5000 ng/ml for high doses. Pharmacokinetic parameters were estimated by using a non-compartmental method, except for the AUC (area under curve), which was determined using a (log-) trapezoidal rule as the area above the previous trough level. All calculations were made using PKWizard (developed by Russell Barbare and Dr. […] was validated against WinNonlin (Pharsight Corp.), which is an FDA-recognized validated program. Pharmacokinetic parameters were calculated by the program according to standard methods used in the art. Calculation of the pharmacokinetic characteristics was based on the actual blood sampling time (in hours), with predose times set to zero. Concentrations below the LLOQ (lower limit of quantification; 4.974 ng/ml) were assumed to be zero.

multi-day accumulation relative to a single dose, estimated from elimination data ([1]; continued once per day dosing): approximately 4 times | AUC(0-24) ([1]; daily 5 mg, Day 1): 1731 ng·h/mL | AUC(0-infinity) ([1]; daily 5 mg, Day 1): 6005 ng·h/mL | AUMC (0-24) ([1]; daily 5 mg, Day 1): 23670 hours^2*ng/ml | AUMC (0-infinity) ([1]; daily 5 mg, Day 1): 341432 hours^2*ng/ml | Cl/F (0-24) ([1]; daily 5 mg, Day 1): 3.92 L/h | Cmax ([1]; daily 5 mg, Day 1): 117.34 ng/mL | Kc ([1]; daily 5 mg, Day 1): 0.0250 h⁻¹ | MTT ([1]; daily 5 mg, Day 1): 14.51 h | T1/2 ([1]; daily 5 mg, Day 1): 32.18 h | Tmax ([1]; daily 5 mg, Day 1): 10 h | AUC(0-24) ([1]; daily 5 mg, Day 14): 6238 ng·h/mL | AUC(0-infinity) ([1]; daily 5 mg, Day 14): 15913 ng·h/mL | AUMC (0-24) ([1]; daily 5 mg, Day 14): 71173 hours^2*ng/ml | AUMC (0-infinity) ([1]; daily 5 mg, Day 14): 821875 hours^2*ng/ml | Accum. (accumulation) ([1]; daily 5 mg, Day 14): 4.75 | Cl/F (0-24) ([1]; daily 5 mg, Day 14): 0.90 L/h | Cmax ([1]; daily 5 mg, Day 14): 340.31 ng/mL | Kc ([1]; daily 5 mg, Day 14): 0.0278 h⁻¹ | MTT ([1]; daily 5 mg, Day 14): 11.41 h | T1/2 ([1]; daily 5 mg, Day 14): 30.95 h | Tmax ([1]; daily 5 mg, Day 14): 9.67 h | T1/2 (rec. ph.) ([1]; daily 5 mg): 44.17 h | AUC(0-24) ([1]; daily 10 mg, Day 1): 3494 ng·h/mL | AUC(0-infinity) ([1]; daily 10 mg, Day 1): 9912 ng·h/mL | AUMC (0-24) ([1]; daily 10 mg, Day 1): 45924 hours^2*ng/ml | AUMC (0-infinity) ([1]; daily 10 mg, Day 1): 440602 hours^2*ng/ml | Cl/F (0-24) ([1]; daily 10 mg, Day 1): 4.92 L/h | Cmax ([1]; daily 10 mg, Day 1): 227.92 ng/mL | Kc ([1]; daily 10 mg, Day 1): 0.0285 h⁻¹ | MTT ([1]; daily 10 mg, Day 1): 14.44 h | T1/2 ([1]; daily 10 mg, Day 1): 27.09 h | Tmax ([1]; daily 10 mg, Day 1): 11.33 h | AUC(0-24) ([1]; daily 10 mg, Day 14): 12617 ng·h/mL | AUC(0-infinity) ([1]; daily 10 mg, Day 14): 36183 ng·h/mL | AUMC (0-24) ([1]; daily 10 mg, Day 14): 148375 hours^2*ng/ml | AUMC (0-infinity) ([1]; daily 10 mg, Day 14): 2596242 hours^2*ng/ml | Accum. (accumulation) ([1]; daily 10 mg, Day 14): 5.06 | Cl/F (0-24) ([1]; daily 10 mg, Day 14): 0.87 L/h | Cmax ([1]; daily 10 mg, Day 14): 665.80 ng/mL | Kc ([1]; daily 10 mg, Day 14): 0.0267 h⁻¹ | MTT ([1]; daily 10 mg, Day 14): 11.72 h | T1/2 ([1]; daily 10 mg, Day 14): 34.27 h | Tmax ([1]; daily 10 mg, Day 14): 11 h | T1/2 (rec. ph.) ([1]; daily 10 mg): 35.77 h | AUC(0-24) ([1]; daily 20 mg, Day 1): 4186 ng·h/mL | AUC(0-infinity) ([1]; daily 20 mg, Day 1): 12721 ng·h/mL | AUMC (0-24) ([1]; daily 20 mg, Day 1): 58323 hours^2*ng/ml | AUMC (0-infinity) ([1]; daily 20 mg, Day 1): 752013 hours^2*ng/ml | Cl/F (0-24) ([1]; daily 20 mg, Day 1): 5.21 L/h | Cmax ([1]; daily 20 mg, Day 1): 294.23 ng/mL | Kc ([1]; daily 20 mg, Day 1): 0.0307 h⁻¹ | MTT ([1]; daily 20 mg, Day 1): 14.04 h | T1/2 ([1]; daily 20 mg, Day 1): 30.91 h | Tmax ([1]; daily 20 mg, Day 1): 12.33 h | AUC(0-24) ([1]; daily 20 mg, Day 14): 20553 ng·h/mL | AUC(0-infinity) ([1]; daily 20 mg, Day 14): 47828 ng·h/mL | AUMC (0-24) ([1]; daily 20 mg, Day 14): 229287 hours^2*ng/ml | AUMC (0-infinity) ([1]; daily 20 mg, Day 14): 2070644 hours^2*ng/ml | Accum. (accumulation) ([1]; daily 20 mg, Day 14): 4.90 | Cl/F (0-24) ([1]; daily 20 mg, Day 14): 1.46 L/h | Cmax ([1]; daily 20 mg, Day 14): 1275.65 ng/mL | Kc ([1]; daily 20 mg, Day 14): 0.0338 h⁻¹ | MTT ([1]; daily 20 mg, Day 14): 11.16 h | T1/2 ([1]; daily 20 mg, Day 14): 25.09 h | Tmax ([1]; daily 20 mg, Day 14): 7.33 h | T1/2 (rec. ph.) ([1]; daily 20 mg): 30.89 h | AUC(0-24) ([1]; daily 30 mg, Day 1): 6409 ng·h/mL | AUC(0-infinity) ([1]; daily 30 mg, Day 1): 67386 ng·h/mL | AUMC (0-24) ([1]; daily 30 mg, Day 1): 92749 hours^2*ng/ml | AUMC (0-infinity) ([1]; daily 30 mg, Day 1): 11648110 hours^2*ng/ml | Cl/F (0-24) ([1]; daily 30 mg, Day 1): 8.55 L/h | Cmax ([1]; daily 30 mg, Day 1): 416.58 ng/mL | Kc ([1]; daily 30 mg, Day 1): 0.0220 h⁻¹ | MTT ([1]; daily 30 mg, Day 1): 14.73 h | T1/2 ([1]; daily 30 mg, Day 1): 72.30 h | Tmax ([1]; daily 30 mg, Day 1): 19 h | AUC(0-24) ([1]; daily 30 mg, Day 14): 30555 ng·h/mL | AUC(0-infinity) ([1]; daily 30 mg, Day 14): 64120 ng·h/mL | AUMC (0-24) ([1]; daily 30 mg, Day 14): 358861 hours^2*ng/ml | AUMC (0-infinity) ([1]; daily 30 mg, Day 14): 2456341 hours^2*ng/ml | Accum. (accumulation) ([1]; daily 30 mg, Day 14): 7.07 | Cl/F (0-24) ([1]; daily 30 mg, Day 14): 1.09 L/h | Cmax ([1]; daily 30 mg, Day 14): 1821.40 ng/mL | Kc ([1]; daily 30 mg, Day 14): 0.0333 h⁻¹ | MTT ([1]; daily 30 mg, Day 14): 11.78 h | T1/2 ([1]; daily 30 mg, Day 14): 23.64 h | Tmax ([1]; daily 30 mg, Day 14): 10 h | T1/2 (rec. ph.) ([1]; daily 30 mg): 32.78 h | VB-201 in urine samples ([1]; daily 30 mg, HPLC-MS/MS, limit of detection 1 ng/ml): No traces of VB-201 could be detected | average accumulation rate ([1]; daily 5-30 mg, Day 14): approximately 5 | time of peak plasma concentrations after administration ([3]; oral, over the studies): 6 to 11 h | minimum concentration during a 24-hour period relative to maximum concentration ([3]; regular once-daily administration (FIGS. 2 and 4)): at least 66.7%
Compound: CCCCCCCCCCCCCCCCOCC(COP(=O)([O-])OCC[N+](C)(C)C)OCCCCC(=O)O (stereo not drawn) [VB-201, 1-hexadecyl-2-(4′-carboxybutyl)-glycerol-3-phosphocholine]
induction or inhibition of metabolism ([1]; daily 5-30 mg): does not show significant induction or inhibition of metabolism | serious or severe adverse events ([2]; daily 5-30 mg, 14 days): No serious or severe adverse events occurred | safety and tolerability ([2]; orally for 14 days at daily doses 5 mg to 30 mg): as safe and tolerable as placebo
